Source: patent US8304445B2, “7-pyrazolyl tetracycline compounds and methods of use thereof” (Paratek Pharmaceuticals, Inc., priority 2001, dated 2012)
≈ marks a conversion by molar mass, not a printed value.

Experiments:
Type in all cases: cell-based
Conditions in all cases: Mueller-Hinton broth, 37° C., 18 h
[1] = system: S. pneumoniae GFX01778 Tet R; experiment: MIC, broth microdilution, S. pneumoniae GFX01778 Tet R
Protocol: (§1) Growth-inhibitory activity was determined on liquid medium by the antibiotic dilution technique using 96-well microtiter system plates containing two-fold dilutions of antibiotic-agent in 0.2 ml. of Mueller-Hinton broth. Plates were inoculated with each test organism to yield a final inoculum of 5×10^5 CFU/ml and were incubated aerobically at 37° C. for 18 h. The MIC was defined as the lowest concentration of antibacterial agent that inhibited development of visible growth in the microdilution wells.

S. aureus ATCC 29213 = experiment: MIC, broth microdilution, S. aureus ATCC 29213
Protocol: as §1

[2] = system: M. catarrhalis ATCC 23246; experiment: MIC, broth microdilution, M. catarrhalis ATCC 23246
Protocol: as §1

S. aureus GFX01596 Tet R = experiment: MIC, broth microdilution, S. aureus GFX01596 Tet R
Protocol: as §1

H. influenzae ATCC 49247 = experiment: MIC, broth microdilution, H. influenzae ATCC 49247
Protocol: as §1

E. coli ML 308-225 = experiment: MIC, broth microdilution, E. coli ML 308-225
Protocol: as §1

S. pneumoniae 157 = experiment: MIC, broth microdilution, S. pneumoniae 157
Protocol: as §1

CN(C)[C@@H]1C(O)=C(C(N)=O)C(=O)[C@@]2(O)C(O)=C3C(=O)c4c(O)ccc(-n5ccc(C=O)c5)c4C[C@H]3C[C@@H]12 [Example 3, [4S-(4aα,5aαα,12aα)]-4-(Dimethylamino)-7-(1H-pyrrol-1-yl-3-carboxaldehyde)-1,4,4a,5,5a,6,11,12a-octahydro-3,10,12,12a-tetrahydroxy-1,11-dioxo-2-naphthacenecarboxamide]
MIC [1]: 2 µg/mL (≈ 3.94 µM) | MIC (S. aureus ATCC 29213): 0.015 µg/mL (≈ 0.0296 µM) | MIC [2]: 0.008 µg/mL (≈ 0.0158 µM) | MIC (S. aureus GFX01596 Tet R): 0.25 µg/mL (≈ 0.493 µM) | MIC (H. influenzae ATCC 49247): 1 µg/mL (≈ 1.97 µM) | MIC (E. coli ML 308-225): 0.5 µg/mL (≈ 0.985 µM) | MIC (S. pneumoniae 157): 0.015 µg/mL (≈ 0.0296 µM)

CON=Cc1ccn(-c2ccc(O)c3c2C[C@H]2C[C@H]4[C@H](N(C)C)C(O)=C(C(N)=O)C(=O)[C@@]4(O)C(O)=C2C3=O)c1 [Example 6, [4S-(4aα,5aα12aα)]-4-(Dimethylamino)-7-(3-((methyloxymino)methyl)-1H-pyrrol-1-yl)-1,4,4a,5,5a,6,11,12a-octahydro-3,10,12,12a-tetrahydroxy-1,11-dioxo-2-naphthacenecarboxamide]
MIC [1]: 4 µg/mL (≈ 7.46 µM) | MIC (S. aureus ATCC 29213): 0.12 µg/mL (≈ 0.224 µM) | MIC [2]: 0.004 µg/mL (≈ 0.00746 µM) | MIC (S. aureus GFX01596 Tet R): 0.5 µg/mL (≈ 0.932 µM) | MIC (H. influenzae ATCC 49247): 2 µg/mL (≈ 3.73 µM) | MIC (E. coli ML 308-225): 2 µg/mL (≈ 3.73 µM) | MIC (S. pneumoniae 157): 0.06 µg/mL (≈ 0.112 µM)

CN(C)[C@@H]1C(O)=C(C(N)=O)C(=O)[C@@]2(O)C(O)=C3C(=O)c4c(O)ccc(-n5ccc(C=NO)c5)c4C[C@H]3C[C@@H]12 [Example 4, [4S-(4aα,5aαα,12aα)]-4-(Dimethylamino)-7-(3-((hydroxymino)-methyl)-1H-pyrrol-1-yl)-1,4,4a,5,5a,6,11,12a-octahydro-3, 10,12,12a-tetrahydroxy-1,11-dioxo-2-naphthacenecarboxamide]
MIC [1]: 2 µg/mL (≈ 3.83 µM) | MIC (S. aureus ATCC 29213): 0.12 µg/mL (≈ 0.23 µM) | MIC [2]: 0.03 µg/mL (≈ 0.0574 µM) | MIC (S. aureus GFX01596 Tet R): 0.5 µg/mL (≈ 0.957 µM) | MIC (H. influenzae ATCC 49247): 2 µg/mL (≈ 3.83 µM) | MIC (E. coli ML 308-225): 1 µg/mL (≈ 1.91 µM) | MIC (S. pneumoniae 157): 0.03 µg/mL (≈ 0.0574 µM)

CN(C)[C@@H]1C(O)=C(C(N)=O)C(=O)[C@@]2(O)C(O)=C3C(=O)c4c(O)ccc(-n5ccc(C#N)c5)c4C[C@H]3C[C@@H]12 [Example 5, [4S-(4aα,5aαα12aα)]-7-(3-Cyanopyrrol-1-yl)-4-(dimethylamino)-1,4,4a,5,5a,6,11,12a-octahydro-3,10,12,12a-tetrahydroxy-1,11-dioxo-2-naphthacenecarboxamide]
MIC [1]: 2 µg/mL (≈ 3.96 µM) | MIC (S. aureus ATCC 29213): 0.015 µg/mL (≈ 0.0297 µM) | MIC [2]: 0.001 µg/mL (≈ 0.00198 µM) | MIC (S. aureus GFX01596 Tet R): 0.5 µg/mL (≈ 0.991 µM) | MIC (H. influenzae ATCC 49247): 0.5 µg/mL (≈ 0.991 µM) | MIC (E. coli ML 308-225): 0.5 µg/mL (≈ 0.991 µM) | MIC (S. pneumoniae 157): 0.015 µg/mL (≈ 0.0297 µM)
